Results taken from patent US20260364068A1, “ANTIVIRAL USE OF HETEROARYL DERIVATIVE COMPOUND” (UIF (University Industry Foundation), Yonsei University, priority 2022, published 2026).
Like-named read-outs stand apart in the source and are kept apart here.

Assays:
Assay type in all cases: cell-based
[1] = Cell viability measurement (MTS), Calu-3 cells; details: human
Experimental: (§1) Experimental Example 3: Cell Viability Measurement
(§2) Vero cell line (VERO01WCB-1201, Ministry of Food and Drug Safety, Republic of Korea), Calu-3 cell line (KCLB #30055, Korea Cell Line Bank (KCLB), Republic of Korea), CellTiter 96® AQueous One Solution Cell Proliferation Assay kit (Promega, cat. #G3582), and Infinite M200 microplate reader (Tecan).
Calu-3 cells were cultured at 37 °C and 5% CO2 in MEM medium supplemented with 10% fetal bovine serum, 2.2 g/L sodium bicarbonate, 1% 100 units/mL penicillin, and 100 μg/mL streptomycin.
(§3) Vero cells or Calu-3 cells were seeded in 96-well microplates and cultured for 24 hours until the cell confluency reached 20%. After the incubation, compounds were treated in DMSO at concentrations (1, 3, and 10 μM) to reach 0.5% v/v in each well, and reacted at 37 °C for 48 hours. Into each well of the incubated 96-well microplate, 3-(4,5-dimethylthiazol-2-yl)-5-(3-carboxymethoxyphenyl)-2-(4-sulfophenyl)-2H-tetrazolium salt (MTS) assay solution [CellTiter 96® AQueous One Solution Cell Proliferation Assay kit (Promega)] mixed with DMEM medium at a ratio of 1:5, was dispensed at 100 μL/well and incubated at 37 °C for 1 hour. The 490 nm and 690 nm absorbance was then measured using an Infinite M200 instrument.
(§4) The cell viability (also, referred to as cell survival rate) (%) by compound treatment was calculated using the following analysis method. The 690 nm background absorbance value was subtracted from the measured 490 nm absorbance value. Then, to obtain the cell viability of each test group, the viability of the DMSO-treated group that was not treated with the compound was set to 100% and then the relative viability 1 of each compound was calculated. Two to six repeated tests were performed to obtain the results, and the mean values of the results were categorized into the following ranges and shown in Table 5 below (A: 80% survived, B: 50-80% survived, N/A: not tested)

[2] = tested on: Severe Acute Respiratory Syndrome Coronavirus Type 2; assay: microbe, parasite or virus in culture; details: Vero, read-out: Virus replication inhibition efficacy
[3] = tested on: Severe Acute Respiratory Syndrome Coronavirus Type 2; assay: microbe, parasite or virus in culture; details: read-out: Virus replication inhibition efficacy
[4] = Cell viability measurement (MTS), Vero cells; details: monkey
Experimental: as §1, §2
Vero cells were cultured at 37 °C and 5% CO2 in DMEM medium supplemented with 10% fetal bovine serum, 100 units/mL penicillin, and 100 μg/mL streptomycin.
as §3, §4

[5] = 10 uM, virus strain NCCP-43388, 48 hours
[6] = Calu-3, 10 uM, virus strain NCCP-43388, 48 hours
[7] = Calu-3, 10 uM, virus strain NCCP-43344, 48 hours

Structure (SMILES) | viability at 48 h, 1 µM [1] | viability at 48 h, 3 µM [1] | inhibition at 10 µM [2, 5] | inhibition at 10 µM [3, 6] | viability at 48 h, 1 µM [4] | other results
Fc1cc2[nH]c(-c3cccc(Nc4ccc(-c5cccnn5)cc4)c3)nc2cc1Cl [Example 102, 3-(5-chloro-6-fluoro-1H-benzo[d]imidazol-2-yl)-N-(4-pyridazin-3-ylphenyl)aniline] | > 80% | > 80% | > 60% | > 60% | – | viability at 48 h, 10 µM [1]: 50 to 80%
FC(F)(F)c1cc2nc(-c3cccc(Nc4ccc(-c5ccccc5)nn4)c3)[nH]c2cc1Br [Example 9, N-{3-[6-bromo-5-(trifluoromethyl)-1H-benzo[d]imidazol-2-yl]phenyl}-6-phenylpyridazin-3-amine] | – | – | – | – | > 80% | viability at 48 h, 3 µM [4]: 50 to 80%; inhibition at 10 µM ([2]; 10 uM, virus strain NCCP-43344, 48 hours): 30 to 60%
c1cc(Nc2ncc(-c3ccsc3)cn2)cc(-c2nc3ccccc3[nH]2)c1 [Example 164, N-[3-(1H-benzo[d]imidazol-2-yl)phenyl]-5-(3-thienyl)pyrimidin-2-amine] | – | – | > 60% | > 60% | – | –
c1cc(Nc2ccc(-c3cnccn3)cc2)cc(-c2nc3ccccc3[nH]2)c1 [Example 32, 3-(1H-benzo[d]imidazol-2-yl)-N-(4-(pyrazin-2-yl)phenyl)aniline] | > 80% | 50 to 80% | – | > 60% | > 80% | viability at 48 h, 3 µM [4]: > 80%; viability at 48 h, 10 µM [4]: 50 to 80%
FC(F)(F)c1ccc2nc(-c3cccc(Nc4ncc(-c5ccccn5)cn4)c3)[nH]c2c1 [Example 83, 5-(2-pyridyl)-N-[3-[6-(trifluoromethyl)-1H-benzo[d]imidazol-2-yl]phenyl]pyrimidin-2-amine] | > 80% | > 80% | 30 to 60% | 30 to 60% | – | viability at 48 h, 10 µM [1]: > 80%
Clc1ccc2nc(-c3cccc(Nc4ccc(-c5cccnn5)cc4)c3)[nH]c2c1 [Example 226, 3-(6-chloro-1H-benzo[d]imidazol-2-yl)-N-(4-(pyridazin-3-yl)phenyl)aniline] | – | – | > 60% | > 60% | – | –
c1ccc(-c2cnc(Nc3cccc(-c4nc5ccccc5[nH]4)c3)nc2)nc1 [Example 44, N-(3-(1H-benzo[d]imidazol-2-yl)phenyl)-5-(pyridin-2-yl)pyrimidin-2-amine] | > 80% | 50 to 80% | – | > 60% | – | –
Fc1cccc(-c2cnc(Nc3cccc(-c4nc5ccccc5[nH]4)c3)nc2)n1 [Example 259, N-(3-(1H-benzo[d]imidazol-2-yl)phenyl)-5-(6-fluoropyridin-2-yl)pyrimidin-2-amine] | – | – | > 60% | > 60% | – | –
Cc1noc(-c2ccc3nc(-c4cccc(Nc5ccc(-c6cccnn6)cc5)c4)[nH]c3c2)n1 [Example 93, 3-(6-(3-methyl-1,2,4-oxadiazol-5-yl)-1H-benzo[d]imidazol-2-yl)-N-(4-(pyridazin-3-yl)phenyl)aniline] | > 80% | > 80% | 30 to 60% | > 60% | – | viability at 48 h, 10 µM [1]: > 80%
Fc1ccc2nc(-c3cccc(Nc4ccc(-c5cccnn5)cc4)c3)[nH]c2c1 [Example 25, 3-(6-fluoro-1H-benzo[d]imidazol-2-yl)-N-(4-(pyridazin-3-yl)phenyl)aniline] | – | – | – | – | > 80% | viability at 48 h, 3 µM [4]: > 80%; viability at 48 h, 10 µM [4]: > 80%; inhibition at 10 µM [3, 7]: > 60%
FC(F)(F)Oc1cc2[nH]c(-c3cccc(Nc4ccc(-c5cccnn5)cc4)c3)nc2cn1 [Example 232, N-(4-(pyridazin-3-yl)phenyl)-3-(6-(trifluoromethoxy)-1H-imidazo[4,5-c]pyridin-2-yl)aniline] | – | – | – | – | – | inhibition at 10 µM ([2]; 48 h): 30 to 60%; inhibition at 10 µM ([3]; Calu-3, 48 h): > 60%
Clc1cc2nc(-c3cccc(Nc4ccc(-c5ccccc5)cn4)c3)[nH]c2cc1Cl [Example 13, N-[3-(5,6-dichloro-1H-benzo[d]imidazol-2-yl)phenyl]-5-phenylpyridin-2-amine] | – | – | – | – | > 80% | viability at 48 h, 3 µM [4]: > 80%; viability at 48 h, 10 µM [4]: 50 to 80%; inhibition at 10 µM [3, 7]: > 60%
Fc1ccc2nc(-c3cccc(Nc4ncc(-c5ccccn5)cn4)c3)[nH]c2c1 [Example 45, N-[3-(6-fluoro-1H-benzo[d]imidazol-2-yl)phenyl]-5-(pyridin-2-yl)pyrimidin-2-amine] | 50 to 80% | – | – | 30 to 60% | – | viability at 48 h, 3 µM [4]: > 80%; viability at 48 h, 10 µM [4]: 50 to 80%
c1cc(Nc2ncc(-c3ccncn3)cn2)cc(-c2nc3ccccc3[nH]2)c1 [Example 76, N-[3-(1H-benzo[d]imidazol-2-yl)phenyl]-[4,5′-bipyrimidin]-2′-amine] | – | – | 30 to 60% | 30 to 60% | – | –
N#Cc1ccc2nc(-c3cccc(Nc4ccc(-c5cccnn5)cc4)c3)[nH]c2c1 [Example 231, 2-(3-((4-(pyridazin-3-yl)phenyl)amino)phenyl)-1H-benzo[d]imidazole-6-carbonitrile] | – | – | > 60% | > 60% | – | –
Cc1ccc2nc(-c3cccc(Nc4ccc(-c5cccnn5)cc4)c3)[nH]c2c1 [Example 105, 3-(6-methyl-1H-benzo[d]imidazol-2-yl)-N-(4-pyridazin-3-ylphenyl)aniline] | > 80% | 50 to 80% | > 60% | > 60% | – | viability at 48 h, 10 µM [1]: 50 to 80%
c1cc(Nc2ccc(-c3cncnc3)cc2)cc(-c2nc3ccccc3[nH]2)c1 [Example 30, 3-(1H-benzo[d]imidazol-2-yl)-N-(4-(pyrimidin-5-yl)phenyl)aniline] | 50 to 80% | – | – | > 60% | > 80% | viability at 48 h, 3 µM [4]: 50 to 80%
c1ccc(-c2ccc(Nc3cccc(-c4nc5ccccc5[nH]4)c3)nc2)nc1 [Example 59, N-[3-(1H-benzo[d]imidazol-2-yl)phenyl]-[2,3′-bipyridin]-6′-amine] | > 80% | 50 to 80% | – | – | > 80% | –
Cc1cscc1-c1cnc(Nc2cccc(-c3nc4ccccc4[nH]3)c2)nc1 [Example 43, N-(3-(1H-benzo[d]imidazol-2-yl)phenyl)-5-(4-methylthiophen-3-yl)pyrimidin-2-amine] | > 80% | 50 to 80% | – | – | > 80% | viability at 48 h, 10 µM [4]: > 80%
c1cc(Nc2ncc(-c3ncco3)cn2)cc(-c2nc3ccccc3[nH]2)c1 [Example 171, N-[3-(1H-benzo[d]imidazol-2-yl)phenyl]-5-oxazol-2-yl-pyrimidin-2-amine] | – | – | > 60% | > 60% | – | –
O=[N+]([O-])c1ccc2nc(-c3cccc(Nc4ccc(-c5cccnn5)cc4)c3)[nH]c2c1 [Example 227, 3-(6-nitro-1H-benzo[d]imidazol-2-yl)-N-(4-(pyridazin-3-yl)phenyl)aniline] | – | – | 30 to 60% | > 60% | – | –
Fc1cc2nc(-c3cccc(Nc4cnc(-c5ccccn5)cn4)c3)[nH]c2cc1F [Example 298, N-(3-(5,6-difluoro-1H-benzo[d]imidazol-2-yl)phenyl)-5-(pyridin-2-yl)pyrazin-2-amine] | – | – | – | 30 to 60% | – | –
Fc1cccc(-c2cnc(Nc3cccc(-c4nc5ccc(C(F)(F)F)cc5[nH]4)c3)nc2)n1 [Example 258, 5-(6-fluoropyridin-2-yl)-N-(3-(6-(trifluoromethyl)-1H-benzo[d]imidazol-2-yl)phenyl)pyrimidin-2-amine] | – | – | 30 to 60% | – | – | –
